Test results as given in US8178506B2, “Oligomeric compounds and compositions for use in modulation of small non-coding RNAs” (Regulus Therapeutics Inc., priority 2003, dated 2012).
In the oligonucleotide strings, read from the 5' end, every base follows the letter of its sugar. An asterisk marks phosphorothioate; unmarked linkages are phosphodiester. Other units and linkages are bracketed, terminal groups are in braces. A string of capitals states the bases alone. e = 2'-O-(2-methoxyethyl) (MOE); [5mC] = 5-methylcytosine

Columns and labels:
[1] = tested on: BJ, B16-F10, T47D, T47Dp53 and HeLa cells; assay: Cell cycle assay (propidium iodide flow cytometry), cell line panel; type: cell-based; conditions: 150 nM oligomeric compound, 4.5 μg/ml LIPOFECTIN, after 72 hours, propidium iodide flow cytometry
IGFBP-1 = IGFBP-1 mRNA expression in HepG2 cells; type: cell-based, human; conditions: HepG2, 100 nM oligomeric compound
[2] = Experiment 1, basal (no insulin)
[3] = Experiment 2, 1 nM insulin treated

Row | Substance | G1 (percentage of cells in phase of the cell cycle) [1] [%] | G2/M (percentage of cells in phase of the cell cycle) [1] [%] | S (percentage of cells in phase of the cell cycle) [1] [%] | SubG1 (percentage of cells in phase of the cell cycle) [1] [%] | aneuploid (percentage of cells) [1] [%] | IGFBP-1 (% UTC) (IGFBP-1; [2]) | IGFBP-1 (% UTC) (IGFBP-1; [3])
1 | 327903 (antisense eA*eA*e[5mC]*eT*eA*eT*eA*e[5mC]*eA*eA*e[5mC]*e[5mC]*eT*eA*e[5mC]*eT*eA*e[5mC]*e[5mC]*eT*e[5mC]*eA) [compound 327903] | 53.7 | 15.4 | 30.9 | 11 | 13.4 | 71 | 81
2 | 327941 (antisense eA*eA*e[5mC]*e[5mC]*e[5mC]*eA*e[5mC]*e[5mC]*eG*eA*e[5mC]*eA*eG*e[5mC]*eA*eA*eT*eG*eA*eA*eT*eG*eT*eT) [compound 327941] | 57.2 | 12.9 | 29.9 | 8.2 | 15.8 | 83 | 80
3 | 327934 (antisense eG*eG*eT*eA*e[5mC]*eA*eA*eT*e[5mC]*eA*eA*e[5mC]*eG*eG*eT*e[5mC]*eG*eA*eT*eG*eG*eT) [compound 327934] | 54.4 | 17.4 | 28.2 | 6.6 | 17 | 231 | 244
